Measurements taken from patent publication US20250288572A1, “COMPOSITIONS AND METHODS FOR TREATING PULMONARY VASCULAR DISEASE” (UNIVERSITY OF PITTSBURGH-OF THE COMMONWEALTH SYSTEM OF …, priority 2022, published 2025).
“Also recorded” adds a separate entry of the source.

Columns and labels:
PAECs [1] = experiment: RT-qPCR gene expression in PAECs; assay type: cell-based, human
Method: The hypoxia chamber (modular incubator chamber) was obtained from Billups-Rothenberg Inc. (Del Mar, Cali) and placed in regulated CO2 incubator at 37° C.
(§1) RT-qPCR analysis: Cells were lysis in 1 ml of QiaZol reagent (Qiagen). Total RNA content was extracted using the RNeasy kit (Qiagen), according to the manufacturer's instructions. Total RNA concentration was determined using a BioTek Synergy multimode plate reader. Messenger RNAs were reverse transcribed to generate cDNA using the Multiscript RT kit (Thermo Fisher Scientific). cDNA for specific gene targets was amplified and quantified via fluorescently-labeled Taqman primer sets and Taqman fast advanced master mix (Thermo Fisher Scientific) using an Applied Biosystems QuantStudio 6 Flex Real-Time PCR System.

PASMCs [2] = experiment: RT-qPCR gene expression in PASMCs; assay type: cell-based, human; conditions: hypoxia, BRD2889 5 uM
From the text: Cell culture: Primary human pulmonary artery endothelial cells (PAECs) and human pulmonary artery smooth muscle cells (PASMCs) were purchased from Lonza (302-05A, CC-2581). Of note, the same two male donors were the source of all PAECs in the experiments shown. Two additional male donors were the source for all PASMCs in the experiments shown. Cells from these and any donors were characterized by flow cytometry for consistent expression of cell surface markers and by RNA (RT-qPCR) analysis of endothelial and smooth muscle gene expression. PAECs were cultured in EGM-2 media (CC-3121) along with supplements (CC-4133), and PASMCs were cultured in SmGM-2 culture media (Lonza, CC-3182) at 5% CO2 in a humidified incubator.
as §1

[3] = test system: SU5416-hypoxic pulmonary arterial hypertension rats; experiment: SU5416-hypoxia pulmonary arterial hypertension rat model, disease-reversal dosing; assay type: in vivo, Sprague-Dawley rats
Method: Briefly, 10 week old male Sprague-Dawley rats were injected i.p. with 20 mg/kg of SU5416 (Sigma), placed in normobaric hypoxia (10% 02) for 3 weeks and then transferred to normoxia for 2 weeks. During hypoxic exposure, chambers were opened twice a week for cleaning and replenishment of food and water. […] For BRD2889 vs. vehicle control dosing, i.p. injections every 5 days (5 mg/kg) were administered during the final two weeks of normoxia. Oxygen concentrations were continuously monitored with blood gas analyzers.
Measurement of GST activity: The GST activity from lung tissue and PAECs was assayed using GST assay kit (Cayman, MI, USA) per the manufacturer's instructions.
Rodent echocardiography: Echocardiography was performed using a 15-45M Hz transthoracic transducer and a Visual Sonics Vevo 3100 system (Fujifilm). Inhaled isoflurane anesthesia was used at 2% in 100% 02 during positioning and hair removal and then decreased to isoflurane 0.8% during imaging.

ISCU = experiment: Immunoblot and densitometry of ISCU and GSTP1 in PAECs; assay type: cell-based, human
Method: (§2) BRD2889 (1 uM) vs. vehicle control were added, as indicated, and placed into a hypoxia chamber for 24 h. The hypoxia chamber (modular incubator chamber) was obtained from Billups-Rothenberg Inc. (Del Mar, Cali) and placed in regulated CO2 incubator at 37° C.
Immunoblot and densitometry: Cells were lysed in RIPA buffer (Sigma) along with 1× protease inhibitor cocktail (Sigma). Protein lysate was resolved by gradient 4%-15% SDS-PAGE gels and transferred onto a 0.2 μm PVDF membrane (Bio-Rad). Membranes were blocked in 5% non-fat milk in 1×PBST buffer for one hour at room temperature. Later, they were incubated in the presence of the primary antibody overnight at 4° C., and then appropriate HRP-conjugated secondary antibodies (Life Technologies). The following antibodies were used: human LGALS8 (AF1305, RnD Systems), mouse/rat Lgals8 ([…], Abcam), pSTAT1 (ab29045, Abcam) and STAT1 (ab47425, Abcam), GSTP1 (ab153949, Abcam), ISCU (14812-1-AP, Pointech), Glutathione (ab19534, Abcam), HIF2A (NB100-122, Novous), α-Tubulin (CP06, Millipore sigma), and ACTB (sc-47778, Santa Cruz). The immunoreactive bands were visualized with the Chemidoc XRS+ system (Bio-Rad) using SuperSignal West Femto chemiluminescent substrates (Thermo Fisher Scientific). The images were later quantified using AlphaEaseFC software (Alpha Innotech).

mitochondrial Complex 1 [4] = experiment: Mitochondrial Complex 1 activity in PAECs; assay type: cell-based, human
Method: (§3) Measurement of mitochondrial complex activities: Complex 1 activity of isolated mitochondria were measured using Complex 1 Enzyme Activity Microplate assay kit (Abcam, ab109721) according to the manufacturer's protocol. These enzymes were captured within the wells of the microplate coated by the corresponding complex enzyme antibody, and activities were detected colorimetrically.

PAECs [5] = experiment: BrdU growth (proliferation) assay in PAECs; assay type: cell-based, human
Method: (§4) BrdU growth assay: Cell proliferation was assayed relative to day 0 using a BrdU Cell Proliferation Assay Kit (#6813, Cell Signaling) according to the manufacturer's protocol after incubation for 2 h with BrdU.

[6] = test system: glutathione S-transferase (GST); experiment: Measurement of GST activity in PASMCs; assay type: cell-based, human; conditions: IL-6/sIL-6R + hypoxia, BRD2889 1 uM
Method: as §2

mitochondrial Complex 1 [7] = experiment: Mitochondrial Complex 1 activity in PASMCs; assay type: cell-based, human; conditions: IL-6/sIL-6R + hypoxia
Method: as §2, §3

PASMCs [8] = experiment: BrdU proliferation in PASMCs; assay type: cell-based, human; conditions: IL-6/sIL-6R + hypoxia
Method: as §2, §4

[9] = SU5416-hypoxia rats, vs vehicle control
[10] = SU5416-hypoxia rats, I-BET762 30 mg/kg daily i.p. or BRD2889 5 mg/kg i.p. every 5 days, final 2 weeks
[11] = PAECs, IL-6/sIL-6R + hypoxia, BRD2889 1 uM
[12] = hypoxic PAECs with siRNA knockdown of ISCU

COc1ccc(C#CC2CCCN(C(=O)/C=C/c3cc(OC)c(OC)c(OC)c3)C2=O)cc1 (stereo not drawn) [BRD2889, (E)-3-((4-methoxyphenyl)ethynyl)-1-(3-(3,4,5-trimethoxyphenyl)acryloyl)piperidin-2-one]
inflammatory gene transcripts (EDN1, VCAM1, ICAM1) (PAECs [1]; IL-6/sIL-6R + hypoxia): normalized this upregulation | ISCU transcript (PAECs [1]; hypoxia 48 hrs, BRD2889 5 uM): fully reversing the hypoxic decrease of ISCU; also recorded: rescued by BRD2889 | expression of C43 genes MID2, BANP, AGTRAP (PAECs [1]; hypoxia 48 hrs, BRD2889 5 uM): unaffected in hypoxia by BRD2889 | mTOR transcript (PAECs [1]; hypoxia 48 hrs, BRD2889 5 uM): partially reversing the decrease of mTOR; also recorded: rescued by BRD2889 | ISCU transcript (PASMCs [2]): unaffected by BRD2889 | mTOR transcript (PASMCs [2]): no change in mTOR | aortic blood pressure (mean arterial pressure, MAP) [3, 9]: without significant alterations | heart rate [3, 9]: without significant alterations | left ventricular function (LVPW thickness, LVEF, LVFS; echocardiography) [3, 9]: no alteration of left ventricular function; also recorded: did not exhibit altered left ventricular function | endothelial ISCU (immunofluorescence) ([3]; SU5416-hypoxia rats, BRD2889 5 mg/kg i.p. every 5 days): increased | lung GST activity ([3]; SU5416-hypoxia rats, BRD2889 5 mg/kg i.p. every 5 days, 5 mg/kg): reduced; also recorded: decreased | transcript levels of injury markers of liver (Got, Gpt1) and kidney (Cst3, Lcn2), tissue toxicity ([3]; SU5416-hypoxia rats, BRD2889 vs VC, RT-qPCR): no indication of overt tissue toxicities | Fulton index (RV/LV+S) [3, 10]: reducing; also recorded: reduced | arteriolar muscularization (α-SMA) [3, 10]: reducing; also recorded: reduced | cleaved caspase-3 (CC-3), endothelial apoptosis [3, 10]: reducing; also recorded: decreased | right ventricular systolic pressure (RVSP) [3, 10]: reducing; also recorded: reduced | ascites ([3]; three SU5416-hypoxic rats treated with drug): accumulation of mild ascites | GSTP1 expression (ISCU; [11]): without altering GSTP1 expression | ISCU expression (immunoblot) (ISCU; [11]): reversed the decrease in ISCU expression; also recorded: reversed the IL-6/R+hypoxic decrease | GSTP1 expression (ISCU; hypoxic PAECs): did not affect GSTP1 expression | ISCU protein levels (ISCU; hypoxic PAECs): reversed hypoxia-dependent reduction of ISCU protein levels; also recorded: ISCU levels were increased; also recorded: reversed hypoxic alterations; also recorded: reversed these findings; also recorded: also reversed the hypoxia-induced reduction of ISCU | mitochondrial Complex 1 activity (mitochondrial Complex 1 [4]; PAECs, IL-6/sIL-6R + hypoxia): partially rescued mitochondrial Complex 1 activity; also recorded: reversing the IL-6/R+hypoxia-mediated decrease | mitochondrial Complex 1 activity (mitochondrial Complex 1 [4]; hypoxic PAECs): reversed the decrease; also recorded: reversed hypoxic alterations | mitochondrial Complex 1 activity (mitochondrial Complex 1 [4]; [12]): did not reverse the hypoxia-induced decrease | proliferation (BrdU incorporation) (PAECs [5]; PAECs, IL-6/sIL-6R + hypoxia): increased proliferation; also recorded: reversing | proliferation (BrdU incorporation) (PAECs [5]; hypoxic PAECs): reversed the decrease; also recorded: reversed hypoxic alterations | proliferation (BrdU incorporation) (PAECs [5]; [12]): did not reverse the hypoxia-induced decrease | GST activity [6]: failed to rescue ISCU or alter GST activity; also recorded: did not affect | mitochondrial Complex 1 activity (mitochondrial Complex 1 [7]): did not affect | proliferation (PASMCs [8]): did not affect
